From patent publication US20240158393A1, “PYRIDONE COMPOUNDS AND METHODS OF USE” (Exelixis, Inc., priority 2021, published 2024)
pIC50: −log10 of the molar value.

Experiments:
[1] = target: T1, Human KDR (Homo sapiens, UniProt P35968); test: Human KDR kinase assay (33P radiometric / HTRF KinEase); assay type: biochemical; settings: protocols of Examples B-1 and/or B-2
T1 construct: Human KDR (residues K790-V1356, 55 nM); purchased Eurofins Pharma Discovery Services UK Limited (KinaseProfiler, B-1) and/or CarnaBio (B-2)
T1 sequence (P35968 790-1356): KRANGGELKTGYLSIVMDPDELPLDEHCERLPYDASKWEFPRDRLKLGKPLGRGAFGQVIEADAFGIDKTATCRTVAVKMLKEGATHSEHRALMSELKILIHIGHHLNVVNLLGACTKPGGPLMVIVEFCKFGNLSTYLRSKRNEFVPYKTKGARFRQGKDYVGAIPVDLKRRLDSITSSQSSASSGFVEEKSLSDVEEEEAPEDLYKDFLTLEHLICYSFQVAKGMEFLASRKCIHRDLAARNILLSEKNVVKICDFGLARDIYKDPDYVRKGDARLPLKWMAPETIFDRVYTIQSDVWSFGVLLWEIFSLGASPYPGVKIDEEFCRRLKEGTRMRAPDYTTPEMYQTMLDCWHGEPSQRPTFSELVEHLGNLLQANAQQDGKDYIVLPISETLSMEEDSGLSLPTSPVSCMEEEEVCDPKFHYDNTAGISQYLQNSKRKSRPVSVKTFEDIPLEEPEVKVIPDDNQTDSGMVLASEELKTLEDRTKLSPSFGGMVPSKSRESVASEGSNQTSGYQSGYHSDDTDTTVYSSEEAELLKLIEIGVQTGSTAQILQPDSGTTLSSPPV
Outline: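 Radiometric: KDR K790-V1356 (55 nM), MOPS pH 7.0, myelin basic protein, 10 μM [γ-33P]ATP, 40 min at room temperature, filter-bound 33P counted; nine half-log doses, top 1 μM. HTRF: KDR 790-1356, 1 μM biotinylated peptide, ATP at Km (4.0 μM), 40 min, 10 doses. IC50 from logistic fits.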

[2] = target: T2, Human Mer (Homo sapiens, UniProt Q12866); test: Human Mer kinase assay (33P radiometric / HTRF KinEase); assay type: biochemical; settings: protocols of Examples C-1 and/or C-2
T2 construct: Human Mer (residues R557-E882 with H628Q and R794A, 0.7 nM); purchased Eurofins Pharma Discovery Services UK Limited (KinaseProfiler service)
T2 sequence (Q12866 557-882 limits assumed): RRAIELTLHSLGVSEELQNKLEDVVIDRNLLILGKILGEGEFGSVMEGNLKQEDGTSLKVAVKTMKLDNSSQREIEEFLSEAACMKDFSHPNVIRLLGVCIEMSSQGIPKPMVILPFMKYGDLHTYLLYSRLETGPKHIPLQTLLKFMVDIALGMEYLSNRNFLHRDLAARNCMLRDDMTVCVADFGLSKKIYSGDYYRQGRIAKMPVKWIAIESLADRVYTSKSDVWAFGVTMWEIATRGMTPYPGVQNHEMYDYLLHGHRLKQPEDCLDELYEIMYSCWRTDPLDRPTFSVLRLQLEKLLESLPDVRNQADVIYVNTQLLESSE
Outline: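 Two formats yield IC50 values. HTRF KinEase used MER residues 528-999 with ATP at Km (40 μM), 1 μM biotin-peptide, 60 min RT, […], 10 concentrations. 33P filter assay used 0.7 nM Mer R557-E882 (H628Q/R794A), 10 μM ATP, 250 μM peptide, 40 min RT, top 1 μM.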

pIC50 [1] | pIC50 [2] | Structure (SMILES)
≥ 7.00 | ≥ 7.00 | COc1cc2nccc(Oc3ccc(NC(=O)c4c(C)cc(C)n(C5CCCC5)c4=O)cc3F)c2nc1OC [Compound 15, 1-Cyclopentyl-N-[4-[(6,7-dimethoxy-1,5-naphthyridin-4-yl)oxy]-3-fluorophenyl]-4,6-dimethyl-2-oxopyridine-3-carboxamide]
≥ 7.00 | ≥ 7.00 | COc1cc2nccc(Oc3ccc(NC(=O)c4cnc(C)c(C5=CCCC5)c4O)cc3)c2cc1OC [Compound 16, 5-(Cyclopenten-1-yl)-N-[4-(6,7-dimethoxyquinolin-4-yl)oxyphenyl]-4-hydroxy-6-methylpyridine-3-carboxamide]
≥ 7.00 | ≥ 7.00 | COc1cc2nccc(Oc3ccc(NC(=O)c4cnc(C)c(C5=CCOCC5)c4O)cc3)c2cc1OC [Compound 17, 5-(3,6-Dihydro-2H-pyran-4-yl)-N-[4-(6,7-dimethoxyquinolin-4-yl)oxyphenyl]-4-hydroxy-6-methylpyridine-3-carboxamide]
≥ 7.00 | ≥ 7.00 | COc1cc2nccc(Oc3ccc(NC(=O)c4cnc(C)c(C5=CCCC5)c4O)cc3F)c2cc1OC [Compound 18, 5-(Cyclopenten-1-yl)-N-[4-(6,7-dimethoxyquinolin-4-yl)oxy-3-fluorophenyl]-4-hydroxy-6-methylpyridine-3-carboxamide]
≥ 7.00 | ≥ 7.00 | COc1cc2nccc(Oc3ccc(NC(=O)c4cnc(C)c(C5=CCOCC5)c4O)cc3F)c2cc1OC [Compound 19, 5-(3,6-Dihydro-2H-pyran-4-yl)-N-[4-(6,7-dimethoxyquinolin-4-yl)oxy-3-fluorophenyl]-4-hydroxy-6-methylpyridine-3-carboxamide]
≥ 7.00 | ≥ 7.00 | C=C(C)n1c(C)cc(C)c(C(=O)Nc2ccc(Oc3ccnc4cc(OC)c(OC)nc34)c(F)c2)c1=O [Compound 20, N-[4-[(6,7-Dimethoxy-1,5-naphthyridin-4-yl)oxy]-3-fluorophenyl]-4,6-dimethyl-2-oxo-1-prop-1-en-2-ylpyridine-3-carboxamide]
6.52 to 7.00 | ≥ 7.00 | C=C(C)n1c(C)cc(C)c(C(=O)Nc2ccc(Oc3ccnc4cc(OC)cnc34)c(F)c2)c1=O [Compound 21, N-[3-Fluoro-4-[(7-methoxy-1,5-naphthyridin-4-yl)oxy]phenyl]-4,6-dimethyl-2-oxo-1-prop-1-en-2-ylpyridine-3-carboxamide]
6.52 to 7.00 | ≥ 7.00 | COc1cc2nccc(Oc3ccc(NC(=O)c4c(C)c(Br)c(C)n(C5CCCC5)c4=O)cc3F)c2nc1OC [Compound 22, 5-Bromo-1-cyclopentyl-N-[4-[(6,7-dimethoxy-1,5-naphthyridin-4-yl)oxy]-3-fluorophenyl]-4,6-dimethyl-2-oxopyridine-3-carboxamide]
≥ 7.00 | ≥ 7.00 | COc1cc2nccc(Oc3ccc(NC(=O)c4cnc(C)c(C5=CCCCC5)c4O)cc3F)c2cc1OC [Compound 23, 5-(Cyclohexen-1-yl)-N-[4-(6,7-dimethoxyquinolin-4-yl)oxy-3-fluorophenyl]-4-hydroxy-6-methylpyridine-3-carboxamide]
≥ 7.00 | ≥ 7.00 | COc1cc2nccc(Oc3ccc(NC(=O)c4cnc(C)c(C5=CCCCC5)c4O)cc3)c2cc1OC [Compound 24, 5-(Cyclohexen-1-yl)-N-[4-(6,7-dimethoxyquinolin-4-yl)oxyphenyl]-4-hydroxy-6-methylpyridine-3-carboxamide]
≥ 7.00 | ≥ 7.00 | COc1cc2nccc(Oc3ccc(NC(=O)c4cnc(C)c(/C=C/C5CCCC5)c4O)cc3F)c2nc1OC [Compound 25, 5-[(E)-2-Cyclopentylethenyl]-N-[4-[(6,7-dimethoxy-1,5-naphthyridin-4-yl)oxy]-3-fluorophenyl]-4-hydroxy-6-methylpyridine-3-carboxamide]
≥ 7.00 | ≥ 7.00 | COc1cc2nccc(Oc3ccc(NC(=O)c4cnc(C)c(/C=C/C5CC5)c4O)cc3F)c2nc1OC [Compound 26, 5-[(E)-2-Cyclopropylethenyl]-N-[4-[(6,7-dimethoxy-1,5-naphthyridin-4-yl)oxy]-3-fluorophenyl]-4-hydroxy-6-methylpyridine-3-carboxamide]
≥ 7.00 | ≥ 7.00 | COc1cc2nccc(Oc3ccc(NC(=O)c4cnc(C)c(/C=C/C(C)(C)C)c4O)cc3F)c2nc1OC [Compound 27, N-[4-[(6,7-Dimethoxy-1,5-naphthyridin-4-yl)oxy]-3-fluorophenyl]-5-[(E)-3,3-dimethylbut-1-enyl]-4-hydroxy-6-methylpyridine-3-carboxamide]
≥ 7.00 | ≥ 7.00 | COc1cc2nccc(Oc3ccc(NC(=O)c4cnc(C)c(/C=C/CC(C)C)c4O)cc3F)c2nc1OC [Compound 28, N-[4-[(6,7-Dimethoxy-1,5-naphthyridin-4-yl)oxy]-3-fluorophenyl]-4-hydroxy-6-methyl-5-[(E)-4-methylpent-1-enyl]pyridine-3-carboxamide]
≥ 7.00 | ≥ 7.00 | COc1cc2nccc(Oc3ccc(NC(=O)c4cnc(C)c(/C=C/CC(C)C)c4O)cc3F)c2cc1OC [Compound 29, N-[4-(6,7-Dimethoxyquinolin-4-yl)oxy-3-fluorophenyl]-4-hydroxy-6-methyl-5-[(E)-4-methylpent-1-enyl]pyridine-3-carboxamide]
≥ 7.00 | ≥ 7.00 | COc1cc2nccc(Oc3ccc(NC(=O)c4cnc(C)c(/C=C/C(C)(C)C)c4O)cc3F)c2cc1OC [Compound 30, N-[4-(6,7-Dimethoxyquinolin-4-yl)oxy-3-fluorophenyl]-5-[(E)-3,3-dimethylbut-1-enyl]-4-hydroxy-6-methylpyridine-3-carboxamide]
≥ 7.00 | ≥ 7.00 | COc1cc2nccc(Oc3ccc(NC(=O)c4c(C)nc(C)c(C(C)C)c4O)cc3F)c2nc1OC [Compound 31, N-[4-[(6,7-Dimethoxy-1,5-naphthyridin-4-yl)oxy]-3-fluorophenyl]-4-hydroxy-2,6-dimethyl-5-propan-2-ylpyridine-3-carboxamide]
≥ 7.00 | ≥ 7.00 | COc1cnc2c(Oc3ccc(NC(=O)c4c(C)nc(C)c(C(C)C)c4O)cc3F)ccnc2c1 [Compound 32, N-[3-Fluoro-4-[(7-methoxy-1,5-naphthyridin-4-yl)oxy]phenyl]-4-hydroxy-2,6-dimethyl-5-propan-2-ylpyridine-3-carboxamide]
≥ 7.00 | ≥ 7.00 | COCCOc1cc2nccc(Oc3ccc(NC(=O)c4cnc(C)c(C5=CCCC5)c4O)cc3F)c2nc1OC [Compound 33, 5-(Cyclopenten-1-yl)-N-[3-fluoro-4-[[6-methoxy-7-(2-methoxyethoxy)-1,5-naphthyridin-4-yl]oxy]phenyl]-4-hydroxy-6-methylpyridine-3-carboxamide]
≥ 7.00 | ≥ 7.00 | COCCOc1cc2nccc(Oc3ccc(NC(=O)c4cnc(C)c(C5=CCCCC5)c4O)cc3F)c2nc1OC [Compound 34, 5-(Cyclohexen-1-yl)-N-[3-fluoro-4-[[6-methoxy-7-(2-methoxyethoxy)-1,5-naphthyridin-4-yl]oxy]phenyl]-4-hydroxy-6-methylpyridine-3-carboxamide]
≥ 7.00 | ≥ 7.00 | COCCOc1cc2nccc(Oc3ccc(NC(=O)c4cnc(C)c(C5=CCOCC5)c4O)cc3F)c2nc1OC [Compound 35, 5-(3,6-Dihydro-2H-pyran-4-yl)-N-[3-fluoro-4-[[6-methoxy-7-(2-methoxyethoxy)-1,5-naphthyridin-4-yl]oxy]phenyl]-4-hydroxy-6-methylpyridine-3-carboxamide]
≥ 7.00 | ≥ 7.00 | COCCOc1cc2nccc(Oc3ccc(NC(=O)c4cnc(C)c(/C=C/C5CCCC5)c4O)cc3F)c2nc1OC [Compound 36, 5-[(E)-2-Cyclopentylethenyl]-N-[3-fluoro-4-[[6-methoxy-7-(2-methoxyethoxy)-1,5-naphthyridin-4-yl]oxy]phenyl]-4-hydroxy-6-methylpyridine-3-carboxamide]
≥ 7.00 | ≥ 7.00 | COCCOc1cc2nccc(Oc3ccc(NC(=O)c4cnc(C)c(/C=C/C5CC5)c4O)cc3F)c2nc1OC [Compound 37, 5-[(E)-2-Cyclopropylethenyl]-N-[3-fluoro-4-[[6-methoxy-7-(2-methoxyethoxy)-1,5-naphthyridin-4-yl]oxy]phenyl]-4-hydroxy-6-methylpyridine-3-carboxamide]
6.52 to 7.00 | ≥ 7.00 | COc1cc2nccc(Oc3ccc(NC(=O)c4c(C)ccn(C(C)C)c4=O)cc3F)c2nc1OC [Compound 38, N-[4-[(6,7-Dimethoxy-1,5-naphthyridin-4-yl)oxy]-3-fluorophenyl]-4-methyl-2-oxo-1-propan-2-ylpyridine-3-carboxamide]
< 6.52 | ≥ 7.00 | COc1cc2nccc(Oc3ccc(NC(=O)c4c(C)ccn(C(C)C)c4=O)cc3)c2nc1OC [Compound 39, N-[4-[(6,7-Dimethoxy-1,5-naphthyridin-4-yl)oxy]phenyl]-4-methyl-2-oxo-1-propan-2-ylpyridine-3-carboxamide]
